According to US20260116889A1, “MACROCYCLIC PYRIMIDINE DERIVATIVE, METHOD FOR PREPARING SAME, AND PHARMACEUTICAL COMPOSITION FOR PREVENTION OR TREATMENT OF NEURODEGENERATIVE DISEASE CONTAINING SAME AS ACTIVE INGREDIENT” (WHAN IN PHARMACEUTICAL CO., LTD., priority 2021, published 2026):

Key:
[1] = target: T1, wild type LRRK2 (leucine-rich repeat kinase 2) (Homo sapiens, UniProt Q5S007); assay: HotSpot radiometric kinase assay (Reaction Biology), LRRK2 wild type inhibitory activity; format: biochemical; conditions: 10 μM ATP, 25° C., 120 min
T1 construct: purchased Reaction Biology Corporation
Description: (§1) The experimental method was as follows.
(§2) Specific kinase/substrate pairs were prepared in reaction buffer (20 mM Hepes pH 7.5, 10 mM MgCl2, 1 mM EGTA, 0.02% Brij35, 0.02 mg/ml BSA, 0.1 mM Na3VO4, 2 mM DTT, 1% DMSO) along with the required cofactors. The compounds were transferred to the reaction, and after 20 min, a mixture of ATP (Sigma) and ^33P ATP (PerkinElmer) was added to a final concentration of 10 μM. The reaction was carried out at 25° C. for 120 min and then dropped onto P81 ion exchange filter paper (Whatman). […] IC50 values were obtained using Prism (GraphPad Software).

[2] = target: T2, G2019S mutant of LRRK2 (leucine-rich repeat kinase 2) (Homo sapiens, UniProt Q5S007, G2019S); assay: HotSpot radiometric kinase assay (Reaction Biology), LRRK2 G2019S mutant inhibitory activity; format: biochemical; conditions: 10 μM ATP, 25° C., 120 min
T2 construct: purchased Reaction Biology Corporation
Description: as §1, §2

T1 sequence (Q5S007 whole entry): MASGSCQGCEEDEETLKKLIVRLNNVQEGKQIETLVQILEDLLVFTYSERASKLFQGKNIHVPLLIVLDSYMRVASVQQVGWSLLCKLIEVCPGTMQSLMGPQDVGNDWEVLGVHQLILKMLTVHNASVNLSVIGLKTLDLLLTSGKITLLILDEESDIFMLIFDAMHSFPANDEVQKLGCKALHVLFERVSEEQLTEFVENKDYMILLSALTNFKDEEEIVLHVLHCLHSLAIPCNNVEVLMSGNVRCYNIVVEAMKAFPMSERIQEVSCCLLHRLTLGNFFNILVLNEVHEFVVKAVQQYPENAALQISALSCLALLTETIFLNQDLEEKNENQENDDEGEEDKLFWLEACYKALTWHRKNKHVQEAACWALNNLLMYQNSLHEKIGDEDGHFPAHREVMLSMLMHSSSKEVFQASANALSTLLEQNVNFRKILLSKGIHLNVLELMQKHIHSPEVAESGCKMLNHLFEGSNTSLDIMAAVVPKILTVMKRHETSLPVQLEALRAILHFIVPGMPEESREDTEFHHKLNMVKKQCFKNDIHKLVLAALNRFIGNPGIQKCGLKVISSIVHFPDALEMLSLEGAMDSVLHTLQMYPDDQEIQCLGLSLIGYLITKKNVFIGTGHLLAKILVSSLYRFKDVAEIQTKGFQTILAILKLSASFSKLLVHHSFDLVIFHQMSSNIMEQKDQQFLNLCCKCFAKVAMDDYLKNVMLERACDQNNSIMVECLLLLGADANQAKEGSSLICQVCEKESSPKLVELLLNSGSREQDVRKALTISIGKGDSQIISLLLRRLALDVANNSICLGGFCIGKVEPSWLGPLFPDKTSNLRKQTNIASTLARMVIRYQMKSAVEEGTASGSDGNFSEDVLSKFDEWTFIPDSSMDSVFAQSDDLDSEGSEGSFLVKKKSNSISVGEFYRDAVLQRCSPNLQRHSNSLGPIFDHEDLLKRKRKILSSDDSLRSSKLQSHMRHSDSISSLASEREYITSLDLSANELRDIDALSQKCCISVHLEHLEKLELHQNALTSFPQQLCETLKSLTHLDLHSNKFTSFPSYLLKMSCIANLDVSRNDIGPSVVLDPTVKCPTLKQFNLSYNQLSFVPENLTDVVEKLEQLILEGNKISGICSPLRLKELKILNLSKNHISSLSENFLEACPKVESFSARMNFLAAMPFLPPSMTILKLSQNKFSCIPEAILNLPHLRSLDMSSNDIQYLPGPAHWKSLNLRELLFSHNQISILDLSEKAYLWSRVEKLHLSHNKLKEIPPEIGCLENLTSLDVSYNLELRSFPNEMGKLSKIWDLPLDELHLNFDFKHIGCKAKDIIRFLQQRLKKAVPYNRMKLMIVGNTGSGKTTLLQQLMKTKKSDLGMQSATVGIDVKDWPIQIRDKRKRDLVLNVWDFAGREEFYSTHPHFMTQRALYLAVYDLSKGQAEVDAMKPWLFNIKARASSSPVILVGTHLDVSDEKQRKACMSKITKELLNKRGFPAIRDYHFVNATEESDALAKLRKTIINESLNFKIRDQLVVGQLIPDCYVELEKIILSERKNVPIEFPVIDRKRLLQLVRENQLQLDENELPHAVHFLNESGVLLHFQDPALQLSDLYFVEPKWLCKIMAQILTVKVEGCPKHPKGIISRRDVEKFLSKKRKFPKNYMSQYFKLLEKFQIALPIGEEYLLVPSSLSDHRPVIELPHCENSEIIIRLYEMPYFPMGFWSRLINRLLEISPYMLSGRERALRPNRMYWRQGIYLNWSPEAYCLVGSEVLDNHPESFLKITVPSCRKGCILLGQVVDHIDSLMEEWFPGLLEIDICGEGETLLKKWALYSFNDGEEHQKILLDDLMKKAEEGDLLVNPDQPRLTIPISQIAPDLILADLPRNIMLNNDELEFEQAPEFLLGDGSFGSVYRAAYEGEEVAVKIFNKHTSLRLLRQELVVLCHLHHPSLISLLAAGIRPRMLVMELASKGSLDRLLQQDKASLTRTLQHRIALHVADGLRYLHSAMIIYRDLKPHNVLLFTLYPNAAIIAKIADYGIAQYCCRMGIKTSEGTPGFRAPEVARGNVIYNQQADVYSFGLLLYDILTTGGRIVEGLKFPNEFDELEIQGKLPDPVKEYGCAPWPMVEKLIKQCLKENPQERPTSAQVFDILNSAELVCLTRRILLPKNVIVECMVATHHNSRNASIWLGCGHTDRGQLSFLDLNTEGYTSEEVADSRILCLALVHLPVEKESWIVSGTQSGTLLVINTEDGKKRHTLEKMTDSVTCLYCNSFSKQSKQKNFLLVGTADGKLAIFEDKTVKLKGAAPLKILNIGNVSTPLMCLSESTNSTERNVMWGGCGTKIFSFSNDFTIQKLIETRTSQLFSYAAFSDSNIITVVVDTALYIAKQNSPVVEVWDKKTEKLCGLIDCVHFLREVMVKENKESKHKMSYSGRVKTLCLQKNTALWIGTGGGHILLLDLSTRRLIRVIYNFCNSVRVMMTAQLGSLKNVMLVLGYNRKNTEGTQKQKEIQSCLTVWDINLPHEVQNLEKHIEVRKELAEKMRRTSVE
T2 sequence (Q5S007 whole entry G2019S): as the sequence (Q5S007 whole entry) above, with G2019S counted along it

CN1CCNc2nc(ncc2Cl)Nc2cccc(c2)C1=O [Example 2, 1^5-chloro-5-methyl-2,5,8-triaza-1 (2,4)-pyrimidina-3 (1,3)-benzenacyclooctaphane-4-one]
IC50 [1]: 17 nM | IC50 [2]: 19.3 nM

O=C1NCCCCNc2nc(ncc2Cl)Nc2cccc1c2 [Example 3, 1^5-chloro-2,5,10-triaza-1 (2,4)-pyrimidina-3 (1,3)-benzenacyclodecarphane-4-one]
IC50 [1]: 15.9 nM | IC50 [2]: 13.1 nM

COc1ccc2cc1Nc1ncc(F)c(n1)NCCN(C)C2=O [Example 7, 1^5-fluoro-3^6-methoxy-5-methyl-2,5,8-triaza-1 (2,4)-pyrimidina-3 (1,3)-benzenacyclooctaphane-4-one]
IC50 [1]: 35.5 nM | IC50 [2]: 34.1 nM

COc1ccc2cc1C(=O)N(C)CCNc1nc(ncc1Cl)N2 [Example 9, 1^5-chloro-3^4-methoxy-5-methyl-2,5,8-triaza-1 (2,4)-pyrimidina-3 (1,3)-benzenacyclooctaphane-4-one;2,2,2-trifluoroacetate]
IC50 [1]: 91.1 nM | IC50 [2]: 79.7 nM

COc1ccc2cc1C(=O)N(C)CCCCNc1nc(ncc1Cl)N2 [Example 18, 1^5-chloro-3^4-methoxy-5-methyl-2,5,10-triaza-1 (2,4)-pyrimidina-3 (1,3)-benzenacyclodecarphane-4-one;2,2,2-trifluoroacetate]
IC50 [1]: 142 nM | IC50 [2]: 145 nM

CCc1ccc2cc1Nc1ncc(Cl)c(n1)NCCCCN(C)C2=O [Example 19, 1^5-chloro-3^6-ethyl-5-methyl-2,5,10-triaza-1 (2,4)-pyrimidina-3 (1,3)-benzenacyclodecarphane-4-one;2,2,2-trifluoroacetate]
IC50 [1]: 13.4 nM | IC50 [2]: 6.86 nM

COc1ccc2cc1Nc1ncc(Cl)c(n1)N(C)CCN(C)C2=O [Example 20, 1^5-chloro-3^6-methoxy-5,8-dimethyl-2,5,8-triaza-1 (2,4)-pyrimidina-3 (1,3)-benzenacyclooctaphane-4-one;2,2,2-trifluoroacetate]
IC50 [1]: 3.44 nM | IC50 [2]: 3.51 nM

CCN1CCNc2nc(ncc2Cl)Nc2cc(ccc2OC)C1=O [Example 21, 1^5-chloro-5-ethyl-3^6-methoxy-2,5,8-triaza-1 (2,4)-pyrimidina-3 (1,3)-benzenacyclooctaphane-4-one;2,2,2-trifluoroacetate]
IC50 [1]: 11.1 nM | IC50 [2]: 3.09 nM

COc1ccc2cc1Nc1ncc(Cl)c(n1)NCCN(C(C)C)C2=O [Example 22, 1^5-chloro-5-isopropyl-3^6-methoxy-2,5,8-triaza-1 (2,4)-pyrimidina-3 (1,3)-benzenacyclooctaphane-4-one]
IC50 [1]: 5.06 nM | IC50 [2]: 0.98 nM

COc1ccc2cc1Nc1ncc(Cl)c(n1)N(C)CCCN(C)C2=O [Example 23, 1^5-chloro-3^6-methoxy-5,9-dimethyl-2,5,9-triaza-1 (2,4)-pyrimidina-3 (1,3)-benzenacyclononapane-4-one;2,2,2-trifluoroacetate]
IC50 [1]: 0.667 nM | IC50 [2]: < 0.254 nM

COc1ccc2cc1Nc1ncc(C(F)(F)F)c(n1)N(C)CCN(C)C2=O [Example 25, 3^6-methoxy-5,8-dimethyl-1^5-(trifluoromethyl)-2,5,8-triaza-1 (2,4)-pyrimidina-3 (1,3)-benzenacyclooctaphane-4-one;2,2,2-trifluoroacetate]
IC50 [1]: 62.9 nM | IC50 [2]: 25.7 nM

COc1ccc2cc1Nc1ncc(Cl)c(n1)N(C)CCCCN(C)C2=O [Example 27, 1^5-chloro-3^6-methoxy-5,10-dimethyl-2,5,10-triaza-1 (2,4)-pyrimidina-3 (1,3)-benzenacyclodecarphane-4-one;2,2,2-trifluoroacetate]
IC50 [1]: 5.42 nM | IC50 [2]: 2 nM

COc1ccc2cc1Nc1ncc(C(F)(F)F)c(n1)N(C)CCCCN(C)C2=O [Example 29, 3^6-methoxy-5,10-dimethyl-1^5-(trifluoromethyl)-2,5,10-triaza-1 (2,4)-pyrimidina-3 (1,3)-benzenacyclodecarphane-4-one;2,2,2-trifluoroacetate]
IC50 [1]: 1.79 nM | IC50 [2]: 0.72 nM

CN1CCCN(C)c2nc(ncc2C(F)(F)F)Nc2cc(ccc2OC(F)(F)F)C1=O [Example 30, 5,9-dimethyl-3^6-(trifluoromethoxy)-1^5-(trifluoromethyl)-2,5,9-triaza-1 (2,4)-pyrimidina-3 (1,3)-benzenacyclononapane-4-one]
IC50 [1]: 1.73 nM | IC50 [2]: 0.574 nM

CN1CCCN(C)c2nc(ncc2C(F)(F)F)Nc2cc(ccc2C(F)(F)F)C1=O [Example 31, 5,9-dimethyl-15,36-bis(trifluoromethyl)-2,5,9-triaza-1 (2,4)-pyrimidina-3 (1,3)-benzenacyclononapane-4-one]
IC50 [1]: 58.1 nM | IC50 [2]: 33.4 nM

CN1CCCNc2nc(ncc2C(F)(F)F)Nc2cc(ccc2OC2COC2)C1=O [Example 38, 5-methyl-3^6-(oxetane-3-yloxy)-1^5-(trifluoromethyl)-2,5,9-triaza-1 (2,4)-pyrimidina-3 (1,3)-benzenacyclonaphane-4-one]
IC50 [1]: 22.2 nM | IC50 [2]: 46.7 nM

CN1CCCNc2nc(ncc2Cl)Nc2cc(ccc2OC(F)(F)F)C1=O [Example 40, 1^5-chloro-5-methyl-3^6-(trifluoromethoxy)-2,5,9-triaza-1 (2,4)-pyrimidina-3 (1,3)-benzenacyclonaphane-4-one]
IC50 [1]: 5.47 nM | IC50 [2]: 3.81 nM

CN1CCCNc2nc(ncc2C(F)(F)F)Nc2cc(ccc2OC(F)(F)F)C1=O [Example 41, 5-methyl-36-(trifluoromethoxy)-1^5-(trifluoromethyl)-2,5,9-triaza-1 (2,4)-pyrimidina-3 (1,3)-benzenacyclonaphane-4-one]
IC50 [1]: 4.82 nM | IC50 [2]: 3.08 nM

COc1ccc2cc1Nc1ncc(Cl)c(n1)OCCCN(C)C2=O [Example 42, 15-chloro-3^6-methoxy-5-methyl-9-oxa-2,5-diaza-1 (2,4)-pyrimidina-3 (1,3)-benzenacyclonaphane-4-one]
IC50 [1]: 5.91 nM | IC50 [2]: 5.14 nM

COc1ccc2cc1Nc1ncc(C(F)(F)F)c(n1)OCCCN(C)C2=O [Example 43, 3^6-methoxy-5-methyl-1^5-(trifluoromethyl)-9-oxa-2,5-diaza-1 (2,4)-pyrimidina-3 (1,3)-benzenacyclonaphane-4-one]
IC50 [1]: 4.87 nM | IC50 [2]: 2.07 nM

CN1CCCOc2nc(ncc2C(F)(F)F)Nc2cc(ccc2OC(F)(F)F)C1=O [Example 44, 5-methyl-3^6-(trifluoromethoxy)-1^5-(trifluoromethyl)-9-oxa-2,5-diaza-1 (2,4)-pyrimidina-3 (1,3)-benzenacyclonaphane-4-one]
IC50 [1]: 16.2 nM | IC50 [2]: 10.5 nM

COc1c(F)cc2cc1Nc1ncc(C(F)(F)F)c(n1)OCCCN(C)C2=O [Example 45, 3^5-fluoro-3^6-methoxy-5-methyl-1^5-(trifluoromethyl)-9-oxa-2,5-diaza-1 (2,4)-pyrimidina-3 (1,3)-benzenacyclonaphane-4-one]
IC50 [1]: 10.2 nM | IC50 [2]: 4.8 nM

CN1CCCNc2nc(ncc2C(F)(F)F)Nc2cc(ccc2OC2CC2)C1=O [Example 46, 36-cyclopropoxy-5-methyl-1^5-(trifluoromethyl)-2,5,9-triaza-1 (2,4)-pyrimidina-3 (1,3)-benzenacyclonaphane-4-one]
IC50 [1]: 6.8 nM | IC50 [2]: 2.5 nM
